Values joined by “and” are separate entries in the source; they are usually repeats but may differ in a detail not shown here. Equal values may be shown once. Read-outs that look alike come from different tables or passages of the source.

Common to all, as to type: biochemical
In experiment [1] the test system is Collagenase from Clostridium histolyticum (EC.3.4.24.3). Description: Collagenase inhibition assay (fluorogenic peptide substrate). The protocol: The recent anti-collagenase assay was modified from that previously described by [Widyowati et al. (2016)]. In brief, 50 mmol L^−1 tricine buffer pH 7.5 supplemented with 400 mmol L^−1 NaCl and 10 mmol L^−1 CaCl2 was used as the buffering diluent. Collagenase from Clostridium histolyticum (EC.3.4.24.3) was dissolved in the buffer to a concentration of 1 mg L^−1. The enzyme substrate, MOCAc-PRO-Leu-Gly-Leu-A2pr (Dnp)-Ala-Arg-NH2, was prior dissolved in DMSO and subsequently diluted in the buffer to a concentration of 1 mmol L^−1. A sample dissolved in DMSO was diluted to different concentrations by using the buffer. A 2-µl sample solution was incubated with 100 µl enzyme solution at 37 °C for 10 min. Then, a 50-µl substrate was added and thoroughly mixed. Fluorescence emission (F) at 405 nm was immediately recorded and continually monitored for 30 min using a wavelength of 320 nm for excitation. Caffeic acid was used as a position control (Fig. 1). Negative control was performed with water. The percent inhibition (%) was calculated from the equation below:
%Inhibition={1–(Fsam,30–Fsam,0)÷(Fcont,30–Fcont,0)}×100.

Experiment [2] deals with porcine pancreatic elastase (EC.3.4.21.36) (Sus scrofa, UniProt P00772). The experiment in a line: Elastase inhibition assay (SANA substrate). The protocol:
The assay according to [Abhijit & Manjushree (2010)] was applied with some modifications. Briefly, the buffer system was 0.2 mM Tris-HCl buffer (pH 8.0). A solution of 1 µg mL^−1 porcine pancreatic elastase (EC.3.4.21.36) was prepared in sterile water. The enzyme substrate, N-Succinyl-Ala-Ala-Ala-p-nitroanilide (SANA), was dissolved in the buffer to a concentration of 80 mmol L^−1. A sample dissolved in DMSO was diluted to various concentrations by using the buffer. A 100-µl sample solution was mixed with 50 µl enzyme solution and incubated for 15 min. After that 50 µl of the enzyme substrate solution was added and thoroughly mixed. The OD410 was measured immediately (0 min) and after incubation overnight (o/n) at 37 °C by using a microplate reader. Ursolic acid was used as a positive control (Fig. 1), and water was used as a negative control. The percentage inhibition (%) was calculated by the following equation:
%Inhibition={1–[(Asam,o/n–Asam,0)÷(Acont,o/n–Acont,0)]}×100.

The target in experiment [3] is Mushroom tyrosinase (EC.1.14.18.1) (Agaricus bisporus, UniProt C7FF04). The experiment in a line: Tyrosinase inhibition assay (L-tyrosine substrate). The protocol: In brief, the assay was carried out in 0.05 mol L^−1 phosphate buffer pH 6.8. Mushroom tyrosinase (EC.1.14.18.1) was dissolved in the buffer to a concentration of 100 units mL^−1. L-tyrosine, an enzyme substrate, was prepared to a concentration of 0.25 mg mL^−1 in the buffer. […] Into a well of 96-well plates, 10 µl sample and 40 µl L-tyrosine solution were mixed and incubated for 10 min at room temperature. After that 50 µl enzyme solution was inoculated and mixed thoroughly. The reaction was stopped afterward by incubation on ice for 1 min. […] The percentage inhibition (%) was calculated by the equation as follows:
%Inhibition={1–(Asam,10–Asam,0)÷(Acont,10–Acont,0)}×100.

Sequence of Mushroom tyrosinase (EC.1.14.18.1) (C7FF04 2-392): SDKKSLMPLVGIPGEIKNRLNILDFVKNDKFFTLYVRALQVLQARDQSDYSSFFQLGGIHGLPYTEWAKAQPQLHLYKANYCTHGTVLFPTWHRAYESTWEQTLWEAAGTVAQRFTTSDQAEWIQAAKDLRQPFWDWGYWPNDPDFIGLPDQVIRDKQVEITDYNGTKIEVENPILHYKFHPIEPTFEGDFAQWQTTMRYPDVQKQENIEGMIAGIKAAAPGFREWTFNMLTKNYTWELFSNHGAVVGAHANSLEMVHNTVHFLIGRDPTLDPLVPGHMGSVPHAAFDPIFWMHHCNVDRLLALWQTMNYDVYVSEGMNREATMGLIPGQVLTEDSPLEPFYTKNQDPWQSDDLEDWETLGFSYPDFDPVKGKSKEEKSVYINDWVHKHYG
Sequence of porcine pancreatic elastase (EC.3.4.21.36) (P00772 27-266): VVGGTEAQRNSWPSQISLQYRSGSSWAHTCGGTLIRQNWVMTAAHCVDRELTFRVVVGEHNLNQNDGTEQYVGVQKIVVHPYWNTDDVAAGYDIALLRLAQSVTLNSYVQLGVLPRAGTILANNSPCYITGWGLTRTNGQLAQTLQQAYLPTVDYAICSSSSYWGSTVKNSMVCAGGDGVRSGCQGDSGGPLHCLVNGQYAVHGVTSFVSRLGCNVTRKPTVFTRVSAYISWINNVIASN

As to `O=C(O)/C=C/c1ccc(O)c(O)c1` [Caffeic acid, caffeic acid, reference compound], the “% inhibition collagenase, ave” value in experiment [1] (140 uM) was 30.4%; in experiment [1] (280 uM), 51.1%; in experiment [1] (560 uM), 72.8%; in experiment [1] (conc 280 uM (14 mM is the stock sample solution)), 30.37%; in experiment [1] (conc 28 mM), 51.14%; in experiment [1] (conc 56 mM), 72.77%. Besides, the “% inhibition collagenase, N1-N3” value is 37.46% and 22.54% and 31.12% in experiment [1] (conc 14 mM, individual replicates); 50.5% and 50.77% and 52.14% in experiment [1] (conc 28 mM, individual replicates); 71.84% and 74.23% and 72.24% in experiment [1] (conc 56 mM, individual replicates). For the same compound, the IC50 was 307 µM and 286 µM and 334 µM in experiment [1] (individual replicates, read-out: ic50 collagenase, N1-N3); 309 ± 13.7 µM in experiment [1] (mean ± SEM, triplicate, read-out: IC50 collagenase inhibition).
For the compound `C[C@H]1[C@H](C)CC[C@]2(C(=O)O)CC[C@]3(C)C(=CC[C@@H]4[C@@]5(C)CC[C@H](O)C(C)(C)[C@@H]5CC[C@]43C)[C@H]12` [Ursolic acid, ursolic acid, reference compound], the “% inhibition elastase, replicates 1-3” value in experiment [2] (10 uM, individual replicates) was 25.34% and 30.65%; in experiment [2] (30 uM, individual replicates) it was 46.86% and 46.62%; in experiment [2] (35 uM, individual replicates), 50.36% and 49.93%; in experiment [2] (40 uM, individual replicates) it was 53.85% and 54.07%; in experiment [2] (50 uM, individual replicates), 74.42% and 69.89%; in experiment [2] (100 uM, individual replicates) it was 89.73% and 85.61%. In addition, the inhibition at 10 µM worked out at 26.2% in experiment [2] (10 uM, individual replicates, read-out: % inhibition elastase, replicates 1-3) and 27.4% in experiment [2] (10 uM, read-out: % inhibition elastase, ave). Also, the inhibition at 30 µM in experiment [2] (30 uM, individual replicates, read-out: % inhibition elastase, replicates 1-3) turned out to be 48.1%; in experiment [2] (30 uM, read-out: % inhibition elastase, ave), 47.2%. Further, the inhibition at 35 µM in experiment [2] (35 uM, individual replicates, read-out: % inhibition elastase, replicates 1-3) came out at 51.1%; in experiment [2] (35 uM, read-out: % inhibition elastase, ave), 50.5%. Further, the inhibition at 40 µM in experiment [2] (40 uM, individual replicates, read-out: % inhibition elastase, replicates 1-3) was determined as 53.2%; in experiment [2] (40 uM, read-out: % inhibition elastase, ave), 53.7%. For the same compound, the “% inhibition elastase, ave” value in experiment [2] (50 uM) is on record as 72.36%; in experiment [2] (100 uM) it was 87.51%. Moreover, the inhibition at 50 µM amounted to 72.8% in experiment [2] (50 uM, individual replicates, read-out: % inhibition elastase, replicates 1-3) and 72.4% in experiment [2] (50 uM, read-out: % inhibition elastase, ave). For the same compound, the inhibition at 100 µM was found to be 87.2% in experiment [2] (100 uM, individual replicates, read-out: % inhibition elastase, replicates 1-3); 87.5% in experiment [2] (100 uM, read-out: % inhibition elastase, ave); 80% in experiment [2] (at 100 µmol L^−1, read-out: elastase inhibition). Also, the half-inhibitory concentration (IC50) in experiment [2] (individual replicates, read-out: ic50 elastase, N1-N3 (converted)) is 33.2 µM and 35.1 µM and 34.5 µM; in experiment [2] (mean ± SEM, triplicate, read-out: IC50 elastase inhibition), 34.3 ± 0.6 µM.
Take `OC[C@H]1O[C@@H](Oc2ccc(O)cc2)[C@H](O)[C@@H](O)[C@@H]1O` [β-Arbutin, β-arbutin, reference compound]: the inhibition at 12.5 µg/mL in experiment [3] (read-out: % inhibition tyrosinase, N1-N3, conc 12.5 ug/ml, individual replicates) worked out at 31.2%; in experiment [3] (read-out: % inhibition tyrosinase, ave, conc 12.5 ug/ml), 28.8%. For the same compound, the inhibition at 15 µg/mL was 36.9% in experiment [3] (read-out: % inhibition tyrosinase, N1-N3, conc 15 ug/ml, individual replicates) and 34.8% in experiment [3] (read-out: % inhibition tyrosinase, ave, conc 15 ug/ml). Further, the inhibition at 25 µg/mL in experiment [3] (read-out: % inhibition tyrosinase, N1-N3, conc 25 ug/ml, individual replicates) was determined as 59.7%; in experiment [3] (read-out: % inhibition tyrosinase, ave, conc 25 ug/ml) it was 58.8%. Moreover, the inhibition at 30 µM came to 18.4% in experiment [3] (read-out: % inhibition tyrosinase, ave, 30 uM) and 18.7% in experiment [3] (read-out: % inhibition tyrosinase, replicates 1-3, 30 uM, individual replicates). The inhibition at 40 µM came out at 24.9% in experiment [3] (read-out: % inhibition tyrosinase, ave, 40 uM) and 25.7% in experiment [3] (read-out: % inhibition tyrosinase, replicates 1-3, 40 uM, individual replicates). Further, the inhibition at 46 µM in experiment [3] (read-out: % inhibition tyrosinase, ave, 46 uM) turned out to be 28.8%; in experiment [3] (read-out: % inhibition tyrosinase, replicates 1-3, 46 uM, individual replicates) it was 31.2%. In addition, the inhibition at 50 µM in experiment [3] (read-out: % inhibition tyrosinase, ave, 50 uM) is 34.4%; in experiment [3] (read-out: % inhibition tyrosinase, replicates 1-3, 50 uM, individual replicates), 30.5%. Moreover, the inhibition at 92 µM came to 58.8% in experiment [3] (read-out: % inhibition tyrosinase, ave, 92 uM) and 59.7% in experiment [3] (read-out: % inhibition tyrosinase, replicates 1-3, 92 uM, individual replicates).

Usually IC50 stands for the concentration that inhibits the measured activity by half.

The values are drawn from paper PMC8231342, “Potency of bisresorcinol from Heliciopsis terminalis on skin aging: in vitro bioactivities and molecular interactions” (PeerJ, 2021).
